According to patent US12281058B2, “Manganese catalysts and their use in hydrogenation of ketones” (priority 2019, dated 2025):
Like-named read-outs stand apart in the source and are kept apart here.

Tests used:
[1] = Ketone hydrogenation, general procedure (vial); conditions: 2′,6′-dichloro-3′-fluoroacetophenone, 0.1 mol % catalyst, 50 °C, 16 h
[2] = Ketone hydrogenation, general procedure (vial); conditions: 4′-methoxypropiophenone, 0.001 equiv. catalyst, 50 °C, 16 h
[3] = Ketone hydrogenation, general procedure (vial); conditions: isobutyrophenone; 0.001 equiv. catalyst, 50 °C, 16 h, 50 bar H2; chiral HPLC, (S)
[4] = Ketone hydrogenation, general procedure (vial); conditions: propiophenone; 0.001 equiv. catalyst, 50 °C, 16 h, 50 bar H2, K2CO3, ethanol; chiral HPLC, (S)
[5] = Ketone hydrogenation, general procedure (vial); conditions: 4′-chloropropiophenone, 0.1 mol % catalyst, 50 °C, 16 h
[6] = Ketone hydrogenation, general procedure (vial); conditions: cyclohexylphenylketone; 0.1 mol % catalyst, 50 °C, 16 h, 50 bar H2, K2CO3, ethanol
[7] = for Conversion (%) / TOF: acetophenone, gas uptake, 20 bar H2, 50 °C; for TOF: at 20% conversion
Procedure: The vessel was sealed and pressurised with hydrogen gas (5 bar) and vented. This was repeated twice. The degassed ethanol solution was added via an injection port and the vessel sealed and pressurised with hydrogen gas (20 bar) and vented. This was repeated twice. The pressure was set to 2 bar and the mixture heated to 50° C. at which time the pressure was increased to 20 bar and the experiment started. Gas uptake was monitored by reduction of the pressure in the burette. […] The vessel was cooled to room temperature, vented and the content concentrated to dryness and analysed by ^1H-NMR to confirm full conversion. The uptake curve was converted to conversion by dividing the gas uptake at a time-point by total uptake and multiplied by 100 to get percentage conversion. Substrate and product concentrations could be calculated, from which the turnover frequency (TOF) could be calculated. The TOF was reported at 20% conversion to minimise temperature influence of the vessel setup.

[8] = Ketone hydrogenation, general procedure (vial); conditions: 2′-chloroacetophenone; 0.1 mol % catalyst, 50 °C, 16 h, 50 bar H2, K2CO3, ethanol
[9] = Ketone hydrogenation, general procedure (vial); conditions: 2′-fluoroacetophenone; 0.1 mol % catalyst, 50 °C, 16 h, 50 bar H2, K2CO3, ethanol
[10] = Ketone hydrogenation, general procedure (vial); conditions: 2′-methoxyacetophenone; 0.1 mol % catalyst, 50 °C, 16 h, 50 bar H2, K2CO3, ethanol
[11] = Hydrogenation of acetophenone, microwave vials in autoclave (vial method); conditions: for e.e.: 50 bar H2, chiral HPLC, (S)

Question: Which e.e. ([1]; 50 bar H2, chiral HPLC, (S)) does the source give for “[(Rc,Sp)—N-2-picolynyl-1-(-2-bis(4-methoxy-3,5-dimethylphenyl)-phosphino)ferrocenylethylamine]-κN^1-κN^2-κ^P-tricarbonyl manganese (I) bromide [compound 2]” here?
Answer: Its e.e. is 82%.

Question: What about the “conversion to product (NMR analysis)” value ([2]; 50 bar H2, K2CO3, ethanol) of the same substance?
Answer: The value was 96%.

Question: And the ee ([2]; 50 bar H2, chiral HPLC, (S))?
Answer: The ee was 70%.

Question: What about the ee [3] of the same substance?
Answer: Its ee is 90%.

Question: What about the ee [4] of the same substance?
Answer: Its ee is 76%.

Question: And the e.e. ([5]; 50 bar H2, chiral HPLC, (S))?
Answer: Its e.e. is 80%.

Question: What does the source list for “[(Rc,Sp)—N-(4-(dimethylamino)pyridine-2-methyl)-1-(˜2-bis(4-methoxy-3,5-dimethylphenyl)phosphino)ferrocenylethylamine]-κN^1-κN^2-κ^P-tricarbonyl manganese (I) bromide [compound 6]”?
Answer: Conversion ([1]; 50 bar H2, K2CO3, ethanol): >99%; Conversion [6]: >99%; Conversion (%) ([7]; 0.05 mol % catalyst, 12 h): 100%; TOF ([7]; 0.05 mol % catalyst): 237 h⁻¹; Conversion (%) ([7]; 0.1 mol % catalyst, ethanol, run to completion): 100%; TOF ([7]; 0.1 mol % catalyst): 230 h⁻¹; turnover frequency (TOF) with 6 relative to 7 ([7]; hydrogenation of acetophenone, Table 2): at least 3.5 times; Conversion [8]: >99%; Conversion [9]: >99%; Conversion ([5]; 50 bar H2, K2CO3, ethanol): >99%; Conversion [10]: >99%; Conversion ([11]; 0.01 mol % catalyst, 65 °C, 24 h, 50 bar H2): >99%; e.e. ([11]; 0.01 mol % catalyst, 65 °C, 24 h): 57% (S); Conversion ([11]; 0.02 mol % catalyst, 60 °C, 16 h, 50 bar H2): >99%; e.e. ([11]; 0.02 mol % catalyst, 60 °C, 16 h): 51% (S); Conversion ([11]; 0.1 mol % catalyst, 50 °C, 16 h, 50 bar H2, K2CO3, ethanol): >99%; Conversion (%) ([11]; vial method, 0.1 mol % catalyst, 2 h, 50 bar H2): 56.5%; TOF ([11]; vial method, 0.1 mol % catalyst, calculated after 2 h, 50 bar H2): 283 h⁻¹
